Tests used:
Assay type in all cases: in vivo
[1] = system: wheat (Triticum aestivum); test: Test A postemergence
Outline: (§1)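 Visual injury scores from 0, no effect, to 100, complete control, were assigned versus untreated controls roughly 10 d after treatment in the greenhouse. Test chemicals, formulated with surfactant in a non-phytotoxic solvent, were applied to planted seeds as a preemergence soil spray or postemergence to one- to two-leaf plants 2 to 10 cm tall, in loam–sand soil.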

[2] = system: barnyardgrass (Echinochloa crus-galli); test: Test A postemergence
Outline: as §1

[3] = system: ryegrass, Italian (Italian ryegrass, Lolium multiflorum); test: Test A postemergence
Outline: as §1

[4] = system: pigweed (Amaranthus retroflexus); test: Test A postemergence
Outline: as §1

[5] = system: ragweed (common ragweed, Ambrosia elatior); test: Test A postemergence
Outline: as §1

[6] = system: Kochia (Kochia scoparia); test: Test A postemergence
Outline: as §1

[7] = system: blackgrass (Alopecurus myosuroides); test: Test A postemergence
Outline: as §1

[8] = system: giant foxtail (Setaria faberii); test: Test A postemergence
Outline: as §1

[9] = system: corn (Zea mays); test: Test A postemergence
Outline: as §1

[10] = system: Galium (catchweed bedstraw, Galium aparine); test: Test A postemergence
Outline: as §1

[11] = system: barnyardgrass (Echinochloa crus-galli); test: Test B flooded paddy test; conditions: Flood, 250 g ai/ha; 0 to 100 scale where 0 is no effect and 100 is complete control; 13 to 15 d
Outline: (§2)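 Visual ratings (0 none to 100 complete control) are relative to untreated plants, taken 13–15 d after treatment in a greenhouse. Test material went straight into floodwater standing 3 cm above the soil, kept constant, on plants at the 2-leaf stage.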

[12] = system: sedge, umbrella (small-flower umbrella sedge, Cyperus difformis); test: Test B flooded paddy test; conditions: Flood, 250 g ai/ha; 0 to 100 scale where 0 is no effect and 100 is complete control; 13 to 15 d
Outline: as §2

[13] = system: rice (Oryra sativa); test: Test B flooded paddy test; conditions: Flood, 250 g ai/ha; 0 to 100 scale where 0 is no effect and 100 is complete control; 13 to 15 d
Outline: as §2

[14] = system: ducksalad (Heteranthera limosa); test: Test B flooded paddy test; conditions: Flood, 250 g ai/ha; 0 to 100 scale where 0 is no effect and 100 is complete control; 13 to 15 d
Outline: as §2

[15] = system: barnyardgrass (Echinochloa crus-galli); test: Test A preemergence; conditions: Preemergence
Outline: as §1

[16] = system: ryegrass, Italian (Italian ryegrass, Lolium multiflorum); test: Test A preemergence; conditions: Preemergence
Outline: as §1

[17] = system: pigweed (Amaranthus retroflexus); test: Test A preemergence; conditions: Preemergence
[18] = system: ragweed (common ragweed, Ambrosia elatior); test: Test A preemergence; conditions: Preemergence
Outline: as §1

[19] = system: Kochia (Kochia scoparia); test: Test A preemergence; conditions: Preemergence
Outline: as §1

[20] = system: giant foxtail (Setaria faberii); test: Test A preemergence; conditions: Preemergence
Outline: as §1

[21] = 125 g ai/ha, postemergence, visual rating after approx. 10 d, 0 to 100 scale (0 no effect, 100 complete control)
[22] = Postemergence, 500 g ai/ha, 0 to 100 scale where 0 is no effect and 100 is complete control
[23] = 125 g ai/ha, visual injury after approximately 10 d, 0 to 100 scale where 0 is no effect and 100 is complete control
[24] = 500 g ai/ha, visual injury approx. 10 d

CC(C)Oc1cccc(C2CNC(=O)C2C(=O)Nc2ccc(F)c(F)c2F)c1 (stereo not drawn) [Compound 554]
20: Plant response rating, Wheat [1, 21] | Plant response rating, Kochia [6, 21] | Plant response rating, Ryegrass, Italian [16, 23] | Plant response rating, Ragweed [18, 23]
25: Plant response rating, Rice [13]
40: Plant response rating, Ryegrass, Italian [3, 21] | Plant response rating, Corn [9, 21] | Ryegrass, Italian plant response rating (0 to 100 scale, 0 is no effect, 100 is complete control) [16, 24]
30: Plant response rating, Ragweed [5, 22] | Pigweed plant response rating (0 to 100 scale, 0 is no effect, 100 is complete control) [17, 24]
60: Plant response rating, Blackgrass [7, 21] | Plant response rating, Galium [10, 21] | Plant response rating, Galium [10, 22]
55: Plant response rating, Barnyardgrass [11]
100: Plant response rating, Ducksalad [14]
50: Plant response rating, Wheat [1, 22] | Plant response rating, Kochia [6, 22]
0: Plant response rating, Pigweed [4, 21] | Plant response rating, Pigweed [4, 22] | Plant response rating, Ragweed [5, 21] | Plant response rating, Sedge, Umbrella [12] | Plant response rating, Pigweed [17, 23]
80: Plant response rating, Barnyardgrass [2, 21] | Plant response rating, Foxtail, Giant [8, 22]
90: Plant response rating, Barnyardgrass [2, 22] | Plant response rating, Ryegrass, Italian [3, 22] | Plant response rating, Barnyardgrass [15, 23] | Barnyardgrass plant response rating (0 to 100 scale, 0 is no effect, 100 is complete control) [15, 24] | Kochia plant response rating (0 to 100 scale, 0 is no effect, 100 is complete control) [19, 24] | Plant response rating, Foxtail, Giant [20, 23] | Foxtail, Giant plant response rating (0 to 100 scale, 0 is no effect, 100 is complete control) [20, 24]
70: Plant response rating, Blackgrass [7, 22] | Plant response rating, Foxtail, Giant [8, 21] | Plant response rating, Corn [9, 22] | Ragweed plant response rating (0 to 100 scale, 0 is no effect, 100 is complete control) [18, 24] | Plant response rating, Kochia [19, 23]

Source: US12077503B2, “Substituted cyclic amides and their use as herbicides” (FMC CORPORATION, priority 2015, dated 2024)
